Experimental findings from ChEMBL document CHEMBL1142428, “Noreupenifeldin, a tropolone from an unidentified ascomycete” (J Nat Prod, 2008) are described below.

One test deals with Haemonchus contortus. Kind of test: Anthelmintic activity against Haemonchus contortus assessed as reduction in L3 larval motility. It counts as functional.
For another test, the target named is Stromelysin-1 (Homo sapiens, UniProt P08254). Kind of test: Inhibition of stromelysin mediated beta-casein cleavage.

In brackets after ≈: the same amount, converted by molar mass. Activity calls are given as the source filed them. The rule behind the calls is not given here.

Chain of Stromelysin-1 (P08254 whole entry): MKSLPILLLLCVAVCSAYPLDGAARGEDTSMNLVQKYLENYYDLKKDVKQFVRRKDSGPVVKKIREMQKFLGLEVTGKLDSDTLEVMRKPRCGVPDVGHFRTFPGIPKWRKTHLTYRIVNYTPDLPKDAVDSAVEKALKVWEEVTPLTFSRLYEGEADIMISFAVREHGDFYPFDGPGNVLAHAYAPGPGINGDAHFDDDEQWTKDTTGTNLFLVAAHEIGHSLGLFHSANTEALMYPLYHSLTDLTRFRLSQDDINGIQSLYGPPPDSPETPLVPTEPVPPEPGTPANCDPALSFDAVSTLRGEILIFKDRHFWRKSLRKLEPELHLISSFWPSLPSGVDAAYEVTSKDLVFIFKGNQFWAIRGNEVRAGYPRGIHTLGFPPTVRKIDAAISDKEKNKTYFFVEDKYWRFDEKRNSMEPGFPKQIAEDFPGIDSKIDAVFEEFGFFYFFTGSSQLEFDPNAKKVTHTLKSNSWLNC

In the case of `Cc1cc(=O)c(O)cc2c1C[C@@H]1CC(C)(C)/C=C/C[C@@]3(C)Oc4cc(O)cc(C)c4C[C@@H]3C[C@@H](O)[C@]1(C)O2`, the outcome in the test with Haemonchus contortus was inactive.
In general, EC90 refers to the concentration needed for an effect of 90%. On to `Cc1cc(=O)c(O)cc2c1C[C@@H]1CC(C)(C)/C=C/C[C@@]3(C)Oc4cc(O)c(=O)cc(C)c4C[C@@H]3C[C@@H](O)[C@]1(C)O2` [EUPENIFELDIN], for which, in the test on Haemonchus contortus, the EC90 came to 50 µg/mL (≈ 91.1 µM).
In general, IC50 refers to the concentration that inhibits the measured activity by half. A lower IC50 goes with greater potency. For the molecule `Cc1cc(=O)c(O)cc2c1C[C@H]1CC(C)(C)/C=C/C[C@@]3(C)Oc4cc(O)c(=O)cc(C)c4C[C@@H]3C[C@H](O)[C@]1(C)O2` [PYCNIDIONE], the EC90 in the test with Haemonchus contortus was 83 µg/mL (≈ 151 µM). The same molecule came in with an IC50 on Stromelysin-1 of 31 µM.
As for IVERMECTIN, in the test on Haemonchus contortus, the 90% effect concentration (EC90) stood at 0.18 µg/mL.
